Source: US20020183384A1, “Methods of treating nuclear factor-kappa B mediated diseases and disorders” (priority 2001, published 2002)

What follows are compounds tested on NF-κB mediated transcription (assay: NF-κB driven β-lactamase reporter assay in ECV-304 NF-κB.βlaZ cells (AURORA CCF2 fluorescence)). Settings: 10 μM compound; ECV-304 NF-κB.βlaZ cells stimulated with 10 ng/mL TNF-α or 100 pg/mL IL-1β, 6 hours at 37° C.; inhibition of maximum blue/green ratio.
Format: cell-based, human
Procedure, shortened: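 ECV-304 cells (clone 1E8) stably carrying a β-lactamase reporter driven by 5 HIV-1 NF-κB sites, plated in M-199 with 2% FBS, compound at 10 μM final. CCF2 read at 395 nm excitation, blue 460 nm/green 530 nm emission ratio; IC50 from dose-response curve.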

Row | Compound | Percent Inhibition at 10 μM [%]
1 | CC1(C)OCC(NC(=O)NS(=O)(=O)NC2COC(C)(C)OC2c2ccccc2)C(c2ccccc2)O1 (single isomer, unassigned) [Example 105, Urea, N-(2,2-dimethyl-4-phenyl-1,3-dioxan-5-yl)-N′-[[(2,2-dimethyl-4-phenyl-1,3-dioxan-5-yl)amino]sulfonyl]-, stereoisomer] | <10
2 | [2-(2,4,6-Triisopropyl-phenyl)-acetyl]-sulfamic acid 4-(benzylamino-methyl)-2,6-diisopropyl-phenyl ester; compound with generic inorganic neutral component [Example 229] | 75.79
3 | CCCCCCCCCCN(CCCCCCCCCC)S(=O)(=O)NC(=O)Nc1c(C(C)C)cccc1C(C)C [Example 75, Urea, N-[2,6-bis (1-methylethyl)phenyl]-N′-[(didecylamino)sulfonyl]-] | <10

Same assay, conditions: 10 μM compound; ECV-304 NF-κB.βlaZ cells stimulated with 10 ng/mL TNF-α or 100 pg/mL IL-1β, 6 hours at 37° C.; inhibition of maximum blue/green ratio; 10 µM

Row | Compound | Percent Inhibition at 10 μM [%]
4 | CCCCCCCCCCCCOC(=O)NS(=O)(=O)Nc1c(C(C)C)cccc1C(C)C [Example 53, Carbamic acid, [[[2,6-bis(1-methylethyl)phenyl]amino]sulfonyl]-, dodecyl ester] | 61.31

Same assay, conditions: Homo sapiens, ECV-304, 6 h, 10 μM compound; ECV-304 NF-κB.βlaZ cells stimulated with 10 ng/mL TNF-α or 100 pg/mL IL-1β, 6 hours at 37° C.; inhibition of maximum blue/green ratio; read-out: Percent Inhibition at 10 μM

Row | Compound | inhibition at 10 µM [%]
5 | CC(C)c1cc(C(C)C)c(CC(=O)NS(=O)(=O)Oc2c(C(C)C)cc(SC#N)cc2C(C)C)c(C(C)C)c1 [Example 209, [(2,4,6-Triisopropyl-phenyl)-acetyl]-sulfamic acid 2,6-diisopropyl-4-thiocyanato-phenyl ester] | 56.8
6 | CC(C)c1cccc(C(C)C)c1NC(=O)NS(=O)(=O)N1CCC(c2ccccc2)CC1 [Example 35, N-[2,6-bis(1-methylethyl)phenyl]-N′-[(4-phenyl-1-piperidinyl)-sulfonyl]-urea] | < 10
7 | CCC(C(=O)NS(=O)(=O)Oc1c(C(C)C)cccc1C(C)C)c1ccccc1 (stereo not shown) [Example 169, (2-Phenyl-butyryl)-sulfamic acid 2,6-diisopropyl-phenyl ester] | 21.3
8 | CCCCCCN(CCCCCC)S(=O)(=O)NC(=O)Nc1c(C(C)C)cccc1C(C)C [Example 36, N-[2,6-bis(1-methylethyl)phenyl]-N′-[(dihexylamino)sulfonyl]-urea] | 51.2
9 | CCCCCCCCCCCCOC(=O)NS(=O)(=O)OCCCCCCCCCCCC [Example 61, Carbamic acid, [(dodecyloxy)sulfonyl]-, dodecyl ester] | 27.4
10 | CCCCCCCCCCCCCCCCC(C)S(=O)(=O)NC(=O)Nc1c(OC)cc(OC)cc1OC (stereo not shown) [Example 247, N-[2,4,6-trimethoxyphenyl]-N′-(2-octadecylsulfonyl)urea] | 14.8
11 | COc1ccc(OC)c(CC(=O)NS(=O)(=O)Oc2c(C(C)C)cccc2C(C)C)c1 [Example 145, [(2,5-Dimethoxy-phenyl)-acetyl]-sulfamic acid 2,6-diisopropyl-phenyl ester] | < 10
12 | CC(C)CN(CC(C)C)S(=O)(=O)NC(=O)Nc1c(C(C)C)cccc1C(C)C [Example 68, Urea, N-[2,6-bis(1-methylethyl)phenyl]-N′-[[bis(2-methylpropyl)amino]-sulfonyl]-] | 34.3
13 | CC(C)c1cccc(C(C)C)c1OS(=O)(=O)NC(=O)OC1CCCCC1 [Example 133, Carbamic acid, [[2,6-bis(1-methylethyl)phenoxy]sulfonyl]-, cyclohexyl ester] | < 10
14 | CC(C)c1cc(C(C)C)c(CC(=O)N(C)S(=O)(=O)Oc2c(C(C)C)cccc2C(C)C)c(C(C)C)c1 [Example 181, Methyl-[(2,4,6-triisopropyl-phenyl)-acetyl]-sulfamic acid 2,6-diisopropyl-phenyl ester] | < 10
15 | CC(C)c1cc(C(C)C)c(CC(=O)NS(=O)(=O)Oc2c(C(C)C)cc(NS(C)(=O)=O)cc2C(C)C)c(C(C)C)c1 [Example 227, [(2,4,6-Triisopropyl-phenyl)-acetyl]-sulfamic acid 2,6-diisopropyl-4-methanesulfonylamino-phenyl ester] | 77.3
16 | CC(C)c1cccc(C(C)C)c1CC(=O)NS(=O)(=O)Oc1c(C(C)C)cccc1C(C)C [Example 122, Sulfamic acid, [[2,6-bis(1-methylethyl)phenyl]acetyl]-, 2,6-bis(1-methylethyl)-phenyl ester] | 65.3
17 | CCOC(=O)CCNC(=O)Nc1cc(C(C)C)c(OS(=O)(=O)NC(=O)Cc2c(C(C)C)cc(C(C)C)cc2C(C)C)c(C(C)C)c1 [Example 194, 3-[3-(3,5-Diisopropyl-4-{[(2,4,6-triisopropyl-phenyl)-acetyl]-sulfamoyloxy}-phenyl)-ureido]-propionic acid ethyl ester] | 89.8
18 | CC(C)c1cc(C(C)C)c(CC(=O)NS(=O)(=O)Oc2c(C(C)C)cc(NC(=O)C(N)Cc3c[nH]c4ccccc34)cc2C(C)C)c(C(C)C)c1 (stereo not shown) [Example 204, [(2,4,6-Triisopropyl-phenyl)-acetyl]-sulfamic acid 4-[2-amino-3-(1H-indol-3-yl)-propionylamino]-2,6-diisopropyl-phenyl ester] | 70
19 | CC(C)c1cccc(C(C)C)c1OS(=O)(=O)NC(=O)C(c1ccccc1)C1CCCC1 (stereo not shown) [Example 161, (Cyclopentyl-phenyl-acetyl)-sulfamic acid 2,6-diisopropyl-phenyl ester] | 51.5
20 | CCOc1ccc2nc(S(=O)(=O)NC(=O)Nc3c(C(C)C)cccc3C(C)C)sc2c1 [Example 239, N-[2,6-bis(1-methylethyl)phenyl]-N′-[(6-ethoxy-2-benzothiazolyl)sulfonyl]-urea] | < 10

Same assay, conditions: Homo sapiens; 10 μM compound; ECV-304 NF-κB.βlaZ cells stimulated with 10 ng/mL TNF-α or 100 pg/mL IL-1β, 6 hours at 37° C.; inhibition of maximum blue/green ratio; read-out: Percent Inhibition at 10 μM

Row | Compound | inhibition at 10 µM [%]
21 | CC(C)c1cccc(C(C)C)c1OC(=O)NS(=O)(=O)N1CCc2ccccc21 [Example 72, Carbamic acid, [(2,3-dihydro-1H-indol-1-yl)sulfonyl]-, 2,6-bis(1-methylethyl)-phenyl ester] | 14.1
22 | CCCCCN(CCCCC)S(=O)(=O)NC(=O)Oc1c(C(C)(C)C)cc(C)cc1C(C)(C)C [Example 31, Carbamic acid, [(dipentylamino)sulfonyl]-, 2,6-bis(1,1-dimethylethyl)-4-methylphenyl ester] | 74
23 | CC(C)c1cccc(C(C)C)c1OC(=O)NS(=O)(=O)Oc1c(C(C)C)cc(O)cc1C(C)C [Example 135, Carbamic acid, [[4-hydroxy-2,6-bis(1-methylethyl)phenoxy]sulfonyl]-, 2,6-bis(1-methylethyl)phenyl ester] | < 10
24 | CC(C)c1cc(F)cc(C(C)C)c1OC(=O)NS(=O)(=O)Oc1c(C(C)C)cccc1C(C)C [Example 184, Carbamic acid, [[2,6-bis(1-methylethyl)phenoxy]sulfonyl]-, 4-fluoro-2,6-bis(1-methylethyl)phenyl ester] | 21.2
25 | Cc1cc(C(C)(C)C)c(OC(=O)NS(=O)(=O)Nc2c(C(C)C)cccc2C(C)C)c(C(C)(C)C)c1 [Example 6, Carbamic acid, [[[2,6-bis(1-methylethyl)phenyl]amino]sulfonyl]-, 2,6-bis(1,1-dimethylethyl)-4-methylphenyl ester] | 64.9
26 | CC(C)c1cccc(C(C)C)c1OS(=O)(=O)NC(=O)Oc1c(C(C)(C)C)cccc1C(C)(C)C [Example 91, Carbamic acid, [[2,6-bis(1-methylethyl)phenoxy]sulfonyl]-, 2,6-bis(1,1-dimethylethyl)phenyl ester] | 39.7
27 | CC(C)c1cc(C(C)C)c(OC(=O)NS(=O)(=O)Oc2c(C(C)C)cccc2C(C)C)c(C(C)C)c1 [Example 124, Carbamic acid, [[2,6-bis(1-methylethyl)phenoxy]sulfonyl]-, 2,4,6-tris(1-methylethyl)phenyl ester] | 11.3
28 | COc1cc(C(C)(C)C)c(OC(=O)NS(=O)(=O)Nc2c(C(C)C)cccc2C(C)C)c(C(C)(C)C)c1 [Example 50, Carbamic acid, [[[2,6-bis(1-methylethyl)phenyl]amino]sulfonyl]-, 2,6-bis(1,1-dimethylethyl)-4-methoxyphenyl ester] | 39.1
29 | CC(C)(C)c1cccc(C(C)(C)C)c1OC(=O)NS(=O)(=O)Nc1ccccc1 [Example 15, Carbamic acid, [(phenylamino)sulfonyl]-, 2,6-bis(1,1-dimethylethyl)-phenyl ester] | 12.6
30 | CCCCCCNS(=O)(=O)NC(=O)Oc1c(C(C)C)cccc1C(C)C [Example 67, Carbamic acid, [(hexylamino)sulfonyl]-, 2,6-bis(1-methylethyl)phenyl ester] | 13.8
31 | CCCCN(CCCC)S(=O)(=O)NC(=O)Oc1c(C(C)(C)C)cc(C)cc1C(C)(C)C [Example 30, Carbamic acid, [(dibutylamino)sulfonyl]-, 2,6-bis(1,1-dimethylethyl)-4-methylphenyl ester] | 52
32 | CC(C)c1cccc(C(C)C)c1OC(=O)NS(=O)(=O)NC(c1ccccc1)c1ccccc1 [Example 1, Carbamic acid, [[(diphenylmethyl)amino]sulfonyl]-, 2,6-bis(1-methylethyl)phenyl ester] | 24.8
33 | CC(C)c1cc(O)cc(C(C)C)c1OC(=O)NS(=O)(=O)Oc1c(C(C)C)cccc1C(C)C [Example 132, Carbamic acid, [[2,6-bis(1-methylethyl)phenoxy]sulfonyl]-, 4-hydroxy-2,6-bis(1-methylethyl)phenyl ester] | < 10
34 | CCCCCCCCCCN(CCCCCCCCCC)S(=O)(=O)NC(=O)Oc1c(C(C)(C)C)cc(C)cc1C(C)(C)C [Example 52, Carbamic acid, [(didecylamino)sulfonyl]-, 2,6-bis(1,1-dimethylethyl)-4-methylphenyl ester] | < 10
